In patent US20250206732A1, “COMPOUNDS AND METHODS FOR THE TARGETED DEGRADATION OF KRAS” (Arvinas Operations, Inc., priority 2022, published 2025) one finds Dmax and DC50 data, which are given here for twelve molecules.

Molecules are shown by their SMILES.

In this assay the target is T1, AsPC-1 HiBiT-KRASG12D (Homo sapiens, UniProt P01116, G12D).
T1 construct: insert the HiBiT tag onto the N-terminus of one or more of the endogenous KRAS alleles; endogenous in cells; host or cells: AsPC-1 (ATCC CRL-1682), CRISPR-Cas9 knock-in clone, one tagged allele
Nature of the assay: HiBiT degradation assay (G12D), AsPC-1 HiBiT-KRASG12D cells. The format is cell-based. The following applies: 24 hours treatment; for Dmax: ASPC1, AsPC-1 HiBiT-KRASG12D cells, maximum degradation observed; for DC50: AsPC-1 HiBiT-KRASG12D cells, HiBiT luminescence. Put shortly: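 24 h cmpd treatment, 37° C/5% CO2, AsPC-1 HiBiT-KRASG12D clone (CRISPR N-term tag). Alamar blue 1×, 4 h, fluorescence. PBS wash, Nano-Glo HiBiT lytic reagent, 45 min RT, luminescence. Triplicates.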
Background: The HiBiT peptide binds its large partner to form an active luciferase.

The term Dmax denotes the largest share of the target that was removed. The low end stands for a partial loss of target, the high end for a fuller loss of target. A word on the DC50: it is the concentration giving 50% degradation. A low value points to degradation at low concentration.

T1 sequence (P01116 1-188 isoform P01116-2 G12D): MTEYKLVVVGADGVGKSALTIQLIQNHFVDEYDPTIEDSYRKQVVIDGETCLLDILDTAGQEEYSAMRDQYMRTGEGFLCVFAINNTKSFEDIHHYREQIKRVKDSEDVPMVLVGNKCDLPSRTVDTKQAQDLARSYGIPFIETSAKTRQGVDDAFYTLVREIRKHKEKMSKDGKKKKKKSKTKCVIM

In the case of `CCc1cccc2cc(O)cc(-c3ncc4c(N5CC6CCC(C5)N6)nc(OCCN5CCC(F)(CN6CCN(c7cc([C@@H](C(=O)N8C[C@H](O)C[C@H]8C(=O)N[C@@H](C)c8ccc(-c9scnc9C)cc8)C(C)C)on7)[C@H](C)C6)CC5)nc4c3F)c12` [Compound 224, (2S,4R)-1-[(2S)-2-{3-[(2R)-4-[(1-{2-[(4-{3,8-diazabicyclo[3.2.1]octan-3-yl}-7-(8-ethyl-3-hydroxynaphthalen-1-yl)-8-fluoropyrido[4,3-d]pyrimidin-2-yl)oxy]ethyl}-4-fluoropiperidin-4-yl)methyl]-2-methylpiperazin-1-yl]-1,2-oxazol-5-yl}-3-methylbutanoyl]-4-hydroxy-N-[(1S)-1-[4-(4-methyl-1,3-thiazol-5-yl)phenyl]ethyl]pyrrolidine-2-carboxamide], the Dmax is 20 to 60% and the DC50 fell in the range of 600 to 1000 nM.
The molecule `CCc1cccc2cc(O)cc(-c3ncc4c(N5CC6CCC(C5)N6)nc(OC[C@]56CCCN5[C@H](COC(=O)N5CC(COc7cc([C@H](C(=O)N8C[C@H](O)C[C@H]8C(=O)N[C@@H](C)c8ccc(-c9scnc9C)cc8)C(C)C)on7)C5)CC6)nc4c3F)c12` [Compound 121, [(3S,7aR)-7a-{[(4-{3,8-diazabicyclo[3.2.1]octan-3-yl}-7-(8-ethyl-3-hydroxynaphthalen-1-yl)-8-fluoropyrido[4,3-d]pyrimidin-2-yl)oxy]methyl}-hexahydro-1H-pyrrolizin-3-yl]methyl 3-[({5-[(2R)-1-[(2S,4R)-4-hydroxy-2-{[(1S)-1-[4-(4-methyl-1,3-thiazol-5-yl)phenyl]ethyl]carbamoyl}pyrrolidin-1-yl]-3-methyl-1-oxobutan-2-yl]-1,2-oxazol-3-yl}oxy)methyl]azetidine-1-carboxylate] displayed a Dmax of 80 to 100% and a DC50 below 600 nM.
`CCc1cccc2cc(O)cc(-c3ncc4c(N5CC6CCC(C5)N6)nc(OCCN5CCC(N(C)c6cc([C@H](C(=O)N7C[C@H](O)C[C@H]7C(=O)N[C@@H](C)c7ccc(-c8scnc8C)cc7)C(C)C)on6)CC5)nc4c3F)c12` (relative stereo) [Compound 135, (2S,4R)-1-[(2R*)-2-{3-[(1-{2-[(4-{3,8-diazabicyclo[3.2.1]octan-3-yl}-7-(8-ethyl-3-hydroxynaphthalen-1-yl)-8-fluoropyrido[4,3-d]pyrimidin-2-yl)oxy]ethyl}piperidin-4-yl)(methyl)amino]-1,2-oxazol-5-yl}-3-methylbutanoyl]-4-hydroxy-N-[(1S)-1-[4-(4-methyl-1,3-thiazol-5-yl)phenyl]ethyl]pyrrolidine-2-carboxamide] displayed a Dmax of 80 to 100% and a half-maximal degradation concentration (DC50) below 600 nM.
Molecule `CCc1cccc2cc(O)cc(-c3ncc4c(N5CC6CCC(C5)N6)nc(OC5CCN(CC6CCN(c7cc([C@@H](C(=O)N8C[C@H](O)C[C@H]8C(=O)N[C@@H](C)c8ccc(-c9scnc9C)cc8)C(C)C)on7)CC6)CC5)nc4c3F)c12` [Compound 167, (2S,4R)-1-[(2S)-2-{3-[4-({4-[(4-{3,8-diazabicyclo[3.2.1]octan-3-yl}-7-(8-ethyl-3-hydroxynaphthalen-1-yl)-8-fluoropyrido[4,3-d]pyrimidin-2-yl)oxy]piperidin-1-yl}methyl)piperidin-1-yl]-1,2-oxazol-5-yl}-3-methylbutanoyl]-4-hydroxy-N-[(1S)-1-[4-(4-methyl-1,3-thiazol-5-yl)phenyl]ethyl]pyrrolidine-2-carboxamide] displayed a Dmax of 20 to 60% and a DC50 of 1000 to 3000 nM.
As for `CCc1cccc2cc(O)cc(-c3ncc4c(N5CC6CCC(C5)N6)nc(OC[C@@]56CCCN5[C@H](COC(=O)N5CC(Oc7cc([C@H](C(=O)N8C[C@H](O)C[C@H]8C(=O)N[C@@H](C)c8ccc(-c9scnc9C)cc8)C(C)C)on7)C5)CC6)nc4c3F)c12` [Compound 126, [(3S,7aS)-7a-{[(4-{3,8-diazabicyclo[3.2.1]octan-3-yl}-7-(8-ethyl-3-hydroxynaphthalen-1-yl)-8-fluoropyrido[4,3-d]pyrimidin-2-yl)oxy]methyl}-hexahydro-1H-pyrrolizin-3-yl]methyl 3-({5-[(2R)-1-[(2S,4R)-4-hydroxy-2-{[(1S)-1-[4-(4-methyl-1,3-thiazol-5-yl)phenyl]ethyl]carbamoyl}pyrrolidin-1-yl]-3-methyl-1-oxobutan-2-yl]-1,2-oxazol-3-yl}oxy)azetidine-1-carboxylate], the Dmax fell in the range of 80 to 100% and the DC50 is below 600 nM.
For `CCc1cccc2cc(O)cc(-c3ncc4c(N5CC6CCC(C5)N6)nc(OCCN5CCC(COc6cc([C@H](C(=O)N7C[C@H](O)C[C@H]7C(=O)N[C@@H](C)c7ccc(-c8ccnn8C)cc7)C(C)C)on6)CC5)nc4c3F)c12` (relative stereo) [Compound 143, (2S,4R)-1-[(2R*)-2-{3-[(1-{2-[(4-{3,8-diazabicyclo[3.2.1]octan-3-yl}-7-(8-ethyl-3-hydroxynaphthalen-1-yl)-8-fluoropyrido[4,3-d]pyrimidin-2-yl)oxy]ethyl}piperidin-4-yl)methoxy]-1,2-oxazol-5-yl}-3-methylbutanoyl]-4-hydroxy-N-[(1S)-1-[4-(1-methyl-1H-pyrazol-5-yl)phenyl]ethyl]pyrrolidine-2-carboxamide], in that order: 80 to 100% and below 600 nM.
The molecule `CCc1cccc2cc(O)cc(-c3ncc4c(N5CC6CCC(C5)N6)nc(OCCC5CCN(CC6CN(c7cc([C@H](C(=O)N8C[C@H](O)C[C@H]8C(=O)N[C@@H](C)c8ccc(-c9scnc9C)cc8)C(C)C)on7)C6)CC5)nc4c3F)c12` [Compound 218, (2S,4R)-1-[(2R)-2-(3-{3-[(4-{2-[(4-{3,8-diazabicyclo[3.2.1]octan-3-yl}-7-(8-ethyl-3-hydroxynaphthalen-1-yl)-8-fluoropyrido[4,3-d]pyrimidin-2-yl)oxy]ethyl}piperidin-1-yl)methyl]azetidin-1-yl}-1,2-oxazol-5-yl)-3-methylbutanoyl]-4-hydroxy-N-[(1S)-1-[4-(4-methyl-1,3-thiazol-5-yl)phenyl]ethyl]pyrrolidine-2-carboxamide] yielded a Dmax of 80 to 100% and a DC50 below 600 nM.
The molecule `CCc1cccc2cccc(-c3ncc4c(N5CC6CCC(C5)N6)nc(OC[C@@H]5CC[C@@H](COC(=O)N6CC(Oc7cc([C@H](C(=O)N8C[C@H](O)C[C@H]8C(=O)N[C@@H](C)c8ccc(-c9scnc9C)cc8)C(C)C)on7)C6)N5C)nc4c3F)c12` [Compound 223, [(2S,5S)-5-{[(4-{3,8-diazabicyclo[3.2.1]octan-3-yl}-7-(8-ethylnaphthalen-1-yl)-8-fluoropyrido[4,3-d]pyrimidin-2-yl)oxy]methyl}-1-methylpyrrolidin-2-yl]methyl 3-({5-[(2R)-1-[(2S,4R)-4-hydroxy-2-{[(1S)-1-[4-(4-methyl-1,3-thiazol-5-yl)phenyl]ethyl]carbamoyl}pyrrolidin-1-yl]-3-methyl-1-oxobutan-2-yl]-1,2-oxazol-3-yl}oxy)azetidine-1-carboxylate] displayed a Dmax of 80 to 100% and a DC50 below 600 nM.
Regarding `CCc1cccc2cc(O)cc(-c3ncc4c(N5CC6CCC(C5)N6)nc(OCCN5CC(CC6CCN(c7cc([C@@H](C(=O)N8C[C@H](O)C[C@H]8C(=O)N[C@@H](C)c8ccc(-c9scnc9C)cc8)C(C)C)on7)CC6)C5)nc4c3F)c12` [Compound 234, (2S,4R)-1-[(2S)-2-(3-{4-[(1-{2-[(4-{3,8-diazabicyclo[3.2.1]octan-3-yl}-7-(8-ethyl-3-hydroxynaphthalen-1-yl)-8-fluoropyrido[4,3-d]pyrimidin-2-yl)oxy]ethyl}azetidin-3-yl)methyl]piperidin-1-yl}-1,2-oxazol-5-yl)-3-methylbutanoyl]-4-hydroxy-N-[(1S)-1-[4-(4-methyl-1,3-thiazol-5-yl)phenyl]ethyl] pyrrolidine-2-carboxamide], the Dmax was 20 to 60% and the DC50 is 1000 to 3000 nM.
For `C#Cc1c(F)ccc2cccc(-c3ncc4c(N5CC6CCC(C5)N6)nc(OC[C@]56CCCN5[C@@H](COC(=O)N5CCN(c7cc([C@H](C(=O)N8C[C@H](O)C[C@H]8C(=O)N[C@@H](C)c8ccc(-c9scnc9C)cc8)C(C)C)on7)CC5)CC6)nc4c3F)c12` (single isomer, unassigned) [Compound 333], in that order: 80 to 100% and below 600 nM.
Regarding `CCc1cccc2cc(O)cc(-c3ncc4c(N5CCCCCC5)nc(OC[C@]56CCCN5[C@H](COC(=O)N5CC(Oc7cc([C@H](C(=O)N8C[C@H](O)C[C@H]8C(=O)N[C@@H](C)c8ccc(-c9scnc9C)cc8)C(C)C)on7)C5)CC6)nc4c3F)c12` [Compound 300], the Dmax is 80 to 100% and the DC50 is below 600 nM.
`CCc1cccc2cc(O)cc(-c3ncc4c(N5CC6CCC(C5)N6)nc(OC[C@@]56CCCN5[C@H](COC(=O)N5C[C@@H](C)N(c7cc([C@H](C(=O)N8C[C@H](O)C[C@H]8C(=O)N[C@@H](C)c8ccc(-c9scnc9C)cc8)C(C)C)on7)C[C@@H]5C)CC6)nc4c3F)c12` (stereo in doubt) [Compound 299, [(3S,8R)-8-[[4-(3,8-diazabicyclo[3.2.1]octan-3-yl)-7-(8-ethyl-3-hydroxy-1-naphthyl)-8-fluoro-pyrido[4,3-d]pyrimidin-2-yl]oxymethyl]-1,2,3,5,6,7-hexahydropyrrolizin-3-yl]methyl (2S,5R)-4-[5-[(1R)-1-[(2S,4R)-4-hydroxy-2-[[(1S)-1-[4-(4-methylthiazol-5-yl)phenyl]ethyl]carbamoyl]pyrrolidine-1-carbonyl]-2-methyl-propyl]isoxazol-3-yl]-2,5-dimethyl-piperazine-1-carboxylate] returned a Dmax of 80 to 100% and a DC50 below 600 nM.
